Entries after “also recorded” stand apart in the source; their conditions may differ.
Tests used:
TGF-beta receptor (TβR) = conditions: reported IC50 value (FIG. 13B); cited from earlier work
[1] = test system: B16-F10-Ova melanoma tumors; assay: melanoma model, cell-free scaffold implanted adjacent to tumor; format: in vivo, mouse; conditions: for T cell recruitment and tumor clearance compared to control scaffolds: chemokine in full scaffold
Text: 2-5×10^5 (2-5×105) B16F10-OVA tumor cells were subcutaneously injected into right or both (in the contralateral tumor model) right and left flanks of C57BL/6J WT mice (6-8 weeks old). These melanoma-derived cells are transfected to express chicken ovalbumin peptide (OVA)34. Five days after tumor cell injection, scaffolds were surgically implanted subcutaneously into the same approximate region of the tumors in both flanks. For cell-loaded studies, ex vivo activated OT-I T cells were transferred either intravenously using retro-orbital injections (100 microliters [μL] per animal) or implantable scaffolds at the same day. Tumor size was assessed over time using a digital caliber until day 22 at which animals were sacrificed and the tumor, draining lymph nodes, and spleen were extracted. Tumor mass was measured using a digital balance before digesting the tumor tissue for flow cytometry or fixing it for tissue sectioning. Tumors were digested by incubating in collagenase and DNase I (50 micrograms/mL [μg/mL]) at 37° C. for 15 min. These enzymes were inactivated with ethylenediamine tetra-acetic acid (EDTA) (20 microliters/mL [μL/mL] of solution). […] Tissue sections were imaged by a fluorescence microscope (KEYENCE™ BZ-X800, Osaka, Japan).
Typically, mice received subcutaneous injections of B16-F10 cells to their right flank followed by the scaffold implantation adjacent to the tumor once it was palpable. Without any further treatment animal's health was monitored and were euthanized 17 days afterwards. […]
2-5×10^5 B16F10-OVA or B16F10 tumor cells were subcutaneously injected into right or both (in the contralateral tumor model) right and left flanks of wild-type C57BL/6J WT mice (6-8 weeks old, Jackson Lab). […] Tumor size was assessed over time using a digital caliper until day 22 at which animals were sacrificed and the tumor, draining lymph nodes, and spleen were extracted.
Tumor masses were measured using a digital balance before digesting the tumor tissue for flow cytometry or fixing it for tissue sectioning. […]

[2] = test system: formation of regulatory T cells (Treg), Foxp3 expression; assay: in vitro inhibition of Treg formation (2D); format: cell-based, mouse
Method: (§1) For Treg formation experiments CD4+ T cells were purified from mouse spleen as mentioned above. Cells were then either activated on scaffolds or on anti-CD3e antibody (8 mg/ml) coated plates with the anti-CD28 antibody (2 mg/ml) supplemented medium. At the same time transforming growth factor-beta (TGF-beta; TGF-β) (15 ng/ml) was added to the media. After four days regulatory T cells were removed and stained with antibodies for flow cytometry analysis.
as §1, with “μg/mL)” for “mg/ml)”, “TGF-β” for “transforming growth factor-beta (TGF-beta; TGF-β)”, “ng/mL)” for “ng/ml)”, “removed, fixed, permeabilized,” for “removed”, “cytometric analysis of Foxp3 expression.” for “cytometry analysis.”

B16F10-OVA tumor cells = assay: Transwell migration assay of tumor cells; format: cell-based, mouse; conditions: hydrogels containing CCL21; 8 h
Method: The migration assay to evaluate the role of chemokines on recruitment of T cells and melanoma cancer in the presence and absence of magnetic particles was performed using regular Transwell migration (Majedi, F. S. et al. Cytokine Secreting Microparticles Engineer the Fate and the Effector Functions of T-Cells. Adv. Mater. 30, 1703178 (2018)). […]
The migration assay to evaluate the role of chemokines on recruitment of T cells and melanoma cells in the presence and absence of chemokine-functionalized scaffolds was performed using regular Transwell migration as reported. […]

## Cc1cccc(-c2[nH]c(C(C)(C)C)nc2-c2ccc3c(c2)OCO3)n1 [SB505124]
TGF-beta receptor (TβR)
  IC50: 129 nM

## CXCL12: stromal cell-derived factor 1 chemokine, used in the scaffold instead of CCL21
[1]
  T cell recruitment and tumor clearance compared to control scaffolds: successfully recruited T cells and helped clear tumors

## Cc1cccc(-c2nn3c(c2-c2ccnc4ccc(C(N)=O)cc24)CCC3)n1 [LY2157299, galunisertib]
[2]; 2D, aAPCs, soluble TGF-β in media, soluble TGFbi 10 uM or PLGA NPs with equivalent amount
  Treg formation suppressed: about 40%
[2]; at 1 nM concentrations, versus SB505124
  potency in suppressing Treg formation: about twice as potent as SB505124

B1: CCL21: chemokine (C-C motif) ligand 21, chemoattractant mixed into the scaffold (protein)
chain: SDGGGQDCCLKYSQKKIPYSIVRGYRKQEPSLGCPIPAILFSPRKHSKPELCANPEEGWVQNLMRRLDQPPAPGKQSPGCRKNRGTSKSGKKGKGSKGCKRTEQTQPSRG
B16F10-OVA tumor cells
  recruitment of tumor cells (chemotaxis): no significant effect
[1]; CCL21 versus SDF-1a (CXCL12), otherwise identical scaffolds
  recruitment of CD8+ T cells by chemokine released from scaffold: favors recruitment of CD8+ T cells more than SDF-1α; also recorded: favored recruitment of CD8+ T cells and disfavored CD4+ T cells as compared with CXCL12
[1]
  T cell recruitment and tumor clearance compared to control scaffolds: successfully recruited T cells and helped clear tumors

— patent publication US20230250172A1, “IMPLANTABLE SCAFFOLDS AND USES THEREOF FOR IMMUNOTHERAPY AND OTHER USES” (The Regents of the University of California, priority 2019, published 2023)
